# Measurements from patent publication US20260151467A1, “METHOD FOR TREATING CANCER” (THE CHILDREN'S MEDICAL CENTER CORPORATION, priority 2018, published 2026).
# Legend:
# [1] = system: CCRF-CEM cells; experiment: Viable cell counts (trypan blue) of CCRF-CEM cells treated with asparaginase and other agents; type: cell-based, human; conditions: for effect on Wnt-induced sensitization to asparaginase: shRNA-transduced cells, rapamycin 1 nM, RAD001 10 nM, AZD2014 10 nM; for sensitization to asparaginase by isoform-selective GSK3 inhibitor: 8 days (FIG. 4a)
# Experimental: (§1) Cells (25,000 per well) were seeded in 100 μl of complete growth medium in 96-well plates and incubated with chemotherapeutic agents or vehicle. T-ALL cells were split every 48 hours in a 1:5 ratio. Briefly, 20 μl of cells were mixed with 80 μl fresh culture medium, supplemented with vehicle or chemotherapeutic drugs at the indicated doses. AML cells were split every 72 hours as described above. Cell viability was assessed by counting viable cells based on trypan blue vital dye staining (Invitrogen), according to the manufacturer's instructions. Chemotherapeutic drugs included: PEG-asparaginase (“oncaspar”, Shire, Lexington, MA), dexamethasone (Sigma-Aldrich), vincristine (Selleckchem, Houston, TX), doxorubicin (Sigma-Aldrich), 6-mercaptopurine (Abcam, Cambridge, UK), CHIR99021 (Selleckchem), bortezomib (Selleckchem), rapamycin (Selleckchem), RAD001 (Selleckchem), AZD2014 (Selleckchem), and Wnt3A (R&D systems, Minneapolis, MN). BRD0705 and […] were synthesized as described^15. Caspase 3/7 activity was assessed using the Caspase Glo 3/7 Assay (Promega, Madison, WI) according to the manufacturer's instructions.
# [2] = system: asparaginase-resistant T-ALL patient-derived xenograft; experiment: T-ALL patient-derived xenograft in NRG mice, survival; type: in vivo, mouse
# Experimental: Mice were exposed to a sub-lethal dose of radiation (4.5 Gy) and subsequently injected with human leukemia cells. All injections were performed by tail vein injection. Blood collections were performed to monitor leukemia onset in mice injected with leukemic cells, which was assessed by staining for human CD45 expression using anti-human CD45-PE-Cy7 (1:400, BD #560915) antibody staining. As soon as leukemia engraftment was confirmed based on ≥5% human leukemia cells in the peripheral blood, treatment of mice was begun. Asparaginase (1,000 U/kg) or PBS were injected by tail vein injection as a single dose on day 1 of drug treatment, and BRD0705 (15 mg/kg) or vehicle were given every 12 hours for 12 days by oral gavage. Vehicle was formulated as previously described.^15 Mice were anesthetized with isoflurane (Patterson Veterinary, Greeley, CO) prior to gavage. After start of treatment, body weight was monitored every third day. To assess bilirubin levels, mandibular blood vein collection was performed, and bilirubin levels were measured in the Boston Children's Hospital clinical laboratory. The primary endpoint of this experiment was survival. Mice were euthanized as soon as they developed weight loss greater than 15% or signs/symptoms of progressing disease. Post-mortem analysis of leukemic burden was performed by extracting bone marrow cells, which were filtered through a […] mesh filter and red blood cells were lysed using the BD Biosciences Red Blood Cell Lysis reagent (BD #555899). Isolated bone marrow cells were stained for assessment of leukemic burden using following antibodies from BD Biosciences: Anti-human CD4-APC-Cy7 (1:100, BD #561839) and anti-human CD8-PerCP-Cy5.5 (1:100, BD #560662).
# [3] = system: HCT-15 cells; experiment: Chemotherapy response of colon cancer cell lines (trypan blue counts), HCT-15; type: cell-based, human; conditions: 10 days; Rspondin3 75 ng/ml and Wnt3a 100 ng/ml; inhibitors 1 μM
# Experimental: (§2) Cells (100,000 per well) were seeded in […] of complete growth medium in 12-well plates and incubated with chemotherapeutic agents or vehicle. Cells were split every 48 hours and cell viability was assessed by counting viable cells based on trypan blue vital dye staining (Invitrogen), according to the manufacturer's instructions. Chemotherapeutic drugs included: asparaginase (pegaspargase, Shire, Lexington, MA), CHIR99021 (Selleckchem), recombinant human Wnt3A protein (R&D systems, Minneapolis, MN) and recombinant human R-Spondin 3 protein (R&D systems, Minneapolis, MN). BRD0705 and BRD3731 were synthesized as described (Wagner et al., 2018). Caspase 3/7 activity was assessed using the Caspase Glo 3/7 Assay (Promega, Madison, WI) according to the manufacturer's instructions.
# [4] = system: SW-480 cells; experiment: Chemotherapy response of colon cancer cell lines (trypan blue counts), SW-480; type: cell-based, human; conditions: 10 days; Rspondin3 75 ng/ml and Wnt3a 100 ng/ml; inhibitors 1 μM
# Experimental: as §2
# [5] = system: Apc-deficient organoids; experiment: Chemotherapy response in mouse intestinal organoids, Apc-deficient; type: cell-based; conditions: asparaginase 100 U/L, BRD0705 1 μM or both, 10 days
# Experimental: For assessment of chemotherapy response in mouse intestinal organoids, Apc-deficient and Rspo3 fusion organoids were cultured in basal organoid medium (medium not containing murine Wnt3A, murine Noggin and human R-spondin1 protein). A full 0.95 cm2 well of organoids was split into new wells, aiming to obtain approximately 25 organoids per well. Organoids were split according to previously published protocols (O'Rourke et al., 2016). Matrigel and basal organoid culture medium were supplemented with vehicle or chemotherapeutic agents, and split every 48 hours. After 10 days in culture, total organoid numbers per wells were counted by light microscopy. Microscopy was performed using an 100× objective on an Axio Imager A1 microscope (Zeiss, Oberkochen, Germany), with images captured using a CV-A10 digital camera (Jai, Yokohama, Japan) and Cytovision software (Leica Biosystems, Wetzlar, Germany).
# Organoids touching the edge of a well were excluded from counting. Images were taken from a representative of three independent experiments and analyzed with ImageJ Software (Schneider et al., 2012).
# [6] = system: APC-mutant CRC patient-derived xenograft; experiment: APC-mutant human CRC patient-derived xenograft in nude mice; type: in vivo, mouse; conditions: asparaginase 1000 U/kg×1 dose; BRD0705 every 12 hours×21 days
# Experimental: For implantation of APC mutant human CRC PDX, patient tumor material was collected in PBS and kept on wet ice for engraftment within 24 h after resection. Upon arrival, necrotic and supporting tissues were carefully removed using a surgical blade. Approximately 1 mm×1 mm tissue fragments were implanted subcutaneously into the flank region of male nude mice, as described (Bullman et al., 2017). For injection of intestinal organoids (Rspo3; p53; Kras, or Apc; p53; Kras), per mouse one full […] well of organoids was injected subcutaneously.
# As soon as tumors reached a volume of approximately 150 mm3, treatment of mice was begun. […] Vehicle was formulated as previously described (Wagner et al., 2018).
# After start of treatment, body weight and tumor size were evaluated every other day. Tumor size was assessed by caliper measurements and the approximate volume of the mass was calculated using the formula (l×w×w)×(π/6), where 1 is the major tumor axis and w is the minor tumor axis.
# [7] = system: T-ALL, acute myeloid leukemia and hypodiploid B-ALL cell lines; experiment: Asparaginase sensitization across a panel of treatment-resistant acute leukemia cell lines (trypan blue counts); type: cell-based, human; conditions: CHIR99021 1 μM, 8 days
# Experimental: as §1
# [8] = system: normal human CD34+ hematopoietic progenitors; experiment: Viable cell counts of normal CD34+ hematopoietic progenitors; type: cell-based; conditions: CHIR99021 1 μM, day 4
# Description: Cell lines and cell culture. 293T cells, T-ALL cell lines, AML cell lines and B-ALL cell lines were obtained from ATCC (Manassas, VA, USA), DSMZ (Braunschweig, Germany), the A. Thomas Look laboratory (Boston, MA, USA) or Alex Kentsis laboratory (New York, NY, USA) and cultured in DMEM, RPMI 1640 or MEM alpha (Thermo Fisher Scientific) with 10% or 20% fetal bovine serum (FBS, Sigma-Aldrich, Saint Louis, MO) or TET system approved FBS (Clontech, Mountain View, CA) and 1% penicillin/streptomycin (Thermo Fisher Scientific) at 37° C., 5% CO2. Human CD34+ progenitor cells from mobilized peripheral blood of healthy donors were obtained from Fred Hutchinson Cancer Research Center (Seattle, WA, USA) (e.g., found on the world wide web at sharedresources.fredhutch.org/products/cd34-cells). […]
# Cells (25,000 per well) were seeded in 100 μl of complete growth medium in 96-well plates and incubated with chemotherapeutic agents or vehicle. […] Cell viability was assessed by counting viable cells based on trypan blue vital dye staining (Invitrogen), according to the manufacturer's instructions. […] Caspase 3/7 activity was assessed using the Caspase Glo 3/7 Assay (Promega, Madison, WI) according to the manufacturer's instructions.
# [9] = system: CCD-841 cells; experiment: Viable cell counts of normal colonic epithelium cells; type: cell-based, human; conditions: CHIR99021 1 μM, 10 days
# Experimental: as §2
molecule,measurement,setting,value
CNC(=O)c1cccc(-c2ccc3c(N4CCOC[C@@H]4C)nc(N4CCOC[C@@H]4C)nc3n2)c1 [AZD2014],effect on Wnt-induced sensitization to asparaginase,[1]; 8 days,had no effect
CC[C@@]1(c2ccccc2)C2=C(CC(C)(C)CC2=O)Nc2[nH]ncc21 [BRD0705],sensitization to asparaginase by isoform-selective GSK3 inhibitor,[1],effectively sensitizes
same,difference in survival between vehicle and monotherapy groups (log-rank),"[2]; FIG. 4D, Kaplan-Meier",not significant
same,efficacy against xenograft (survival),"[2]; asparaginase 1,000 U/kg i.v. single dose, BRD0705 15 mg/kg oral gavage every 12 hours for 12 days",highly resistant
same,sensitization to asparaginase,[3],sensitized
same,sensitization to asparaginase,[4],sensitized
same,toxicity to organoids (viable organoid count),[5],little toxicity
same,activity on tumor growth,[6],no activity
CC(C)(C)Cc1[nH]nc2c1[C@](C)(c1ccccc1)C1=C(CC(C)(C)CC1=O)N2 [BRD3731],sensitization to asparaginase by isoform-selective GSK3 inhibitor,[1],only modest effects
same,sensitization to asparaginase,[3],had little effect
same,sensitization to asparaginase,[4],had little effect
Cc1c[nH]c(-c2cnc(NCCNc3ccc(C#N)cn3)nc2-c2ccc(Cl)cc2Cl)n1 [CHIR99021],sensitization to other antileukemic drugs,"[1]; CHIR99021 1 μM, 8 days, vincristine, 6-mercaptopurine, dexamethasone, doxorubicin",Nor did it sensitize leukemic cells to other commonly used antileukemic drugs
same,asparaginase sensitization,[7],induced significant asparaginase sensitization
same,toxicity of asparaginase to normal progenitors with GSK3 inhibitor,[8],did not increase the toxicity of asparaginase
same,sensitization to asparaginase,[3],sufficient to induce asparaginase sensitization
same,sensitization to asparaginase,[4],sufficient to induce asparaginase sensitization
same,toxicity of GSK3 inhibition combined with asparaginase to normal colonic cells,[9],little toxicity
CO[C@H]1C[C@@H]2CC[C@@H](C)[C@@](O)(O2)C(=O)C(=O)N2CCCC[C@H]2C(=O)O[C@H]([C@H](C)C[C@@H]2CC[C@@H](OCCO)[C@H](OC)C2)CC(=O)[C@H](C)/C=C(\C)[C@@H](O)[C@@H](OC)C(=O)[C@H](C)C[C@H](C)/C=C/C=C/C=C/1C [RAD001],effect on Wnt-induced sensitization to asparaginase,[1]; 8 days,had no effect
CC(C)C[C@H](NC(=O)[C@H](Cc1ccccc1)NC(=O)c1cnccn1)B(O)O [bortezomib],single-agent toxicity,[1]; 10 nM dose,lacked single-agent toxicity
same,sensitization to asparaginase by proteasome inhibition,"[1]; bortezomib 10 nM, 8 days",phenocopied Wnt-induced sensitization to asparaginase
same,"toxicity (viability), dose range","[1]; indicated doses, 48 hours (FIG. 10)",highly toxic at intermediate doses
"Wnt3A: Wnt ligand, recombinant protein (R&D systems) (protein, UniProt P56704 19-352, looked up) Protein Wnt-3a: SYPIWWSLAVGPQYSSLGSQPILCASIPGLVPKQLRFCRNYVEIMPSVAEGIKIGIQECQHQFRGRRWNCTTVHDSLAIFGPVLDKATRESAFVHAIASAGVAFAVTRSCAEGTAAICGCSSRHQGSPGKGWKWGGCSEDIEFGGMVSREFADARENRPDARSAMNRHNNEAGRQAIASHMHLKCKCHGLSGSCEVKTCWWSQPDFRAIGDFLKDKYDSASEMVVEKHRESRGWVETLRPRYTYFKVPTERDLVYYEASPNFCEPNPETGSFGTRDRTCNVSSHGIDGCDLLCCGRGHNARAERRREKCRCVFHWCCYVSCQECTRVYDVHTCK",sensitization to asparaginase by Wnt ligand,"[1]; 100 ng/ml Wnt3A, 8 days",phenocopied
